Our source for the activity change, negative = inhibition values is PubChem BioAssay AID1224920 (Broad Institute, 2016).

The nature of this experiment: growth modulation of Clostridium difficile isolate – OD600, 9-point, retest, dose response (AID 1224920).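 Also: plate controls were DMSO for no effect and levofloxacin control for full effect; inhibitors lower culture turbidity so OD600 falls.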 To be noted: Clostridium difficile clinical isolate growth, OD600, 24 h.

Molecules are shown by their SMILES. Activity calls are given as the source filed them.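 The calls were made as follows: active = IC50 no higher than ten times the top tested dose; inconclusive = flat fit with 30 to 70% inhibition, or poor fit; inactive = IC50 above ten times the top dose.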

Turning to `COc1ccc2c3c(n(C)c2c1)[C@H](CO)N(C(=O)Cc1ccccc1)CC31CCN(C)CC1`, for the setting “at 120 µM (top of the series)”, the activity change, negative = inhibition is 8.89% (inactive).

For the molecule `O=S(=O)(c1ccc(F)cc1)N1CCCCN2[C@H](CO)[C@H](c3ccc(C#CC4CCCC4)cc3)[C@H]2C1`, the activity change, negative = inhibition (at 120 µM (top of the series)) is -16.2% (inactive). On to `COc1ccc2c3c(n(C)c2c1)[C@H](CO)N(C(=O)Nc1ccc(F)cc1)CC31CCN(C(=O)CN2CCOCC2)CC1`, for which the activity change, negative = inhibition (at 135 µM (top of the series)) is -1.31% (inactive). For the molecule `OC[C@H]1[C@H](c2ccc(-c3ccccc3)cc2)[C@@H]2CN(CCC(F)(F)F)CCCCN12`, the activity change, negative = inhibition (at 60 µM (top of the series)) is 31.7% (inactive). Consider `Cc1cccc(-c2ccc([C@@H]3[C@@H](CO)N4CCCCN(CCC(F)(F)F)C[C@@H]34)cc2)c1`, for which the activity change, negative = inhibition (at 30 µM (top of the series)) is 25% (inactive).

As for `O=C(C[C@@H]1CC[C@@H]2[C@H](COC[C@@H](O)CN2S(=O)(=O)c2ccccc2)O1)NCc1ccc(-c2ccccc2)cc1`, the activity change, negative = inhibition (at 120 µM (top of the series)) is 43.8% (inactive). Take `O=C(Nc1ccc(F)cc1)N1[C@@H]2CNC[C@H]1C2c1ccc(-c2ccc(F)cc2)cc1` (stereo not given in full): the activity change, negative = inhibition (at 60 µM (top of the series)) is 14.2% (inactive). As for `COc1ccccc1S(=O)(=O)N1CC[C@@H]2[C@@H](CO)Nc3ccc(-c4ccc(F)cc4)cc3[C@@H]21`, the activity change, negative = inhibition (at 135 µM (top of the series)) was 47% (inactive). With `C[C@H](CO)N1C[C@H](C)[C@@H](CN(C)S(=O)(=O)c2ccc(Cl)cc2)Oc2c(NS(=O)(=O)c3ccccc3)cccc2C1=O`, the activity change, negative = inhibition (at 120 µM (top of the series)) was -3.11% (inactive). Regarding `C[C@H](CO)N1C[C@H](C)[C@H](CN(C)Cc2ccc(Oc3ccccc3)cc2)Oc2ccc(NS(=O)(=O)c3ccccc3)cc2CC1=O`, where the note is “at 60 µM (top of the series)”, the activity change, negative = inhibition was 33.6% (inactive). `CN1[C@@H]2c3ccc(/C=C/c4ccccc4)c(=O)n3C[C@H]1[C@H](CO)[C@H]2C(=O)NC1CCCC1`: the activity change, negative = inhibition (at 120 µM (top of the series)) is 4.99% (inactive). Same read-out and setting: for `O=C(Nc1ccc(F)cc1)N1CCCCN2[C@H](C1)[C@@H](c1ccc(-c3cccc(F)c3)cc1)[C@@H]2CO` the value was 43.3% (inactive); for `N#C[C@@H]1[C@@H](c2ccccc2-c2cccc(F)c2)[C@H](CO)N1C(=O)NC1CCCCC1`, 9.02% (inactive). Still for that read-out and setting: the figure for `CN(C)C(=O)C[C@H]1C=C[C@H](NC(=O)C2CCOCC2)[C@H](CO)O1` is -14.4% (inactive). As for `COc1ccc(NC(=O)N2CC[C@H]3[C@@H]2c2cc(Br)ccc2N(C)[C@H]3CO)cc1`, where the note is “at 135 µM (top of the series)”, the activity change, negative = inhibition is 4.83% (inactive).

As for `C/C=C/c1ccc([C@@H]2[C@@H](CO)N(Cc3ccccn3)[C@H]2CNC(C)=O)cc1`, for the setting “at 120 µM (top of the series)”, the activity change, negative = inhibition is -14.5% (inactive). In the case of `CCc1nc(N2[C@H](C#N)[C@@H](c3ccccc3-c3ccccc3F)[C@@H]2CO)sc1C`, the activity change, negative = inhibition (at 120 µM (top of the series)) is 57.6% (inactive).

On to `C[C@H](CO)N1C[C@H](C)[C@H](CN(C)C(=O)Nc2ccc3c(c2)OCO3)Oc2c(NC(=O)Nc3ccc(C(F)(F)F)cc3)cccc2C1=O`, for which, under “at 120 µM (top of the series)”, the activity change, negative = inhibition is 49.4% (inactive). As to `Cc1ccc(-c2ccc([C@@H]3[C@@H](CO)N4CCCCN(C(=O)Nc5ccccc5)C[C@@H]34)cc2)cc1`, the activity change, negative = inhibition (at 120 µM (top of the series)) was 27.7% (inactive). Regarding `C/C=C/c1ccc([C@H]2[C@@H](CNC(C)C)N(c3nc(CC)cs3)[C@H]2CO)cc1`, for the setting “at 135 µM (top of the series)”, the activity change, negative = inhibition is 32.5% (inactive).

For the molecule `N#Cc1cccc(-c2ccc3c(c2)[C@@H]2[C@@H](CCN2Cc2ccc4c(c2)OCO4)[C@@H](CO)N3)c1`, the activity change, negative = inhibition (at 35 µM (top of the series)) was -4.09% (inactive).

As for `CN1c2ccc(Br)cc2[C@H]2[C@H](CCN2C(=O)Nc2ccc(F)cc2)[C@@H]1CO`, the activity change, negative = inhibition (at 120 µM (top of the series)) is 55.4% (inactive). Consider `CN1c2ccc(-c3cccc(F)c3)cc2[C@@H]2[C@@H](CCN2C(=O)C2CCCC2)[C@@H]1CO`, for which the activity change, negative = inhibition (at 120 µM (top of the series)) is 34.7% (inactive). On to `O=C(Nc1ccc(F)cc1)N1CCCCN2[C@H](CO)[C@@H](c3ccc(-c4ccccc4F)cc3)[C@@H]2C1`, for which the activity change, negative = inhibition (at 60 µM (top of the series)) is 53.6% (inactive).

Consider `C/C=C/c1ccc(C2[C@@H]3CN(S(=O)(=O)c4ccc(F)cc4)C[C@H]2N3)cc1` (stereo not given in full), for which the activity change, negative = inhibition (at 60 µM (top of the series)) was 42.1% (inactive). Same read-out and setting: the figure for `C/C=C/c1ccc(C2[C@@H]3CN(Cc4cccc(OC)c4)C[C@H]2N3)cc1` (stereo not given in full) is 20.9% (inactive).

In the case of `O=C(Nc1cccc(F)c1)N1CC(=O)N2[C@H](C1)[C@H](c1ccc(-c3cccc(F)c3)cc1)[C@@H]2CO`, the activity change, negative = inhibition (at 135 µM (top of the series)) is 37.9% (inactive). As to `COc1ccc2c3c(n(C)c2c1)[C@H](CO)NCC31CN(Cc2ccc(F)cc2)C1`, where the note is “at 60 µM (top of the series)”, the activity change, negative = inhibition is 7.43% (inactive).

`Cc1ccc(-c2ccc([C@@H]3[C@H]4CN(C(=O)Nc5cccc(F)c5)CCCCN4[C@H]3CO)cc2)cc1`: the activity change, negative = inhibition (at 120 µM (top of the series)) was 6.7% (inactive). `CC(=O)N1[C@H](CO)[C@@H](c2ccccc2)[C@H]1CN(C)C(=O)CN1CCOCC1`: the activity change, negative = inhibition (at 135 µM (top of the series)) was -1.86% (inactive). Turning to `Cc1ccccc1-c1ccc([C@H]2[C@@H](CO)N3CCCCN(S(=O)(=O)c4ccc(F)cc4)C[C@H]23)cc1`, the activity change, negative = inhibition (at 120 µM (top of the series)) was 3.42% (inactive). In the case of `C/C=C/c1ccc(C2[C@@H]3CN(C(=O)Nc4ccc(F)cc4)C[C@H]2N3)cc1` (stereo not given in full), the activity change, negative = inhibition (at 68 µM (top of the series)) was 49.5% (inactive). As to `N#C[C@@H]1[C@@H](c2ccccc2-c2cccc(F)c2)[C@H](CO)N1C(=O)NC1CCCC1`, where the note is “at 120 µM (top of the series)”, the activity change, negative = inhibition is 10.6% (inactive). Still for that read-out and setting: the figure for `CN1c2ccc(-c3ccc(F)cc3)cc2[C@H]2[C@H](CCN2C(=O)Nc2ccc(F)cc2)[C@H]1CO` is 43.1% (inactive).

Turning to `O=C(Cc1ccccc1)N1CC[C@@H]2[C@H](CO)Nc3ccc(C4=CCCCC4)cc3[C@@H]21`, for the setting “at 68 µM (top of the series)”, the activity change, negative = inhibition was 29.4% (inactive).
